Experiments:
Leishmania donovani [1] = experiment: Antileishmanial activity against Leishmania donovani MHOM/ET/67/HU3 amastigotes infected in po dosed BALB/c mouse model administered one week after infection for 5 consecutive days measured after 3 days of last dose by Giemsa staining; assay type: functional; conditions: for ED50: MHOM/ET/67/HU3, po
Leishmania donovani [2] = experiment: Activity ratio of compound EC50 to miltefosine EC50 for intracellular Leishmania donovani MHOM/ET/67/HU3 amastigotes infected in peritoneal macrophages of Mesocricetus auratus; assay type: functional
[3] = Therapeutic index, ratio of EC50 for human THP1 cells to EC50 for intracellular Leishmania donovani MHOM/ET/67/HU3 amastigotes infected in peritoneal macrophages of Mesocricetus auratus; assay type: cell-based, THP-1; conditions: read-out: TI
Leishmania donovani [4] = experiment: Antileishmanial activity against intracellular Leishmania donovani MHOM/ET/67/HU3 amastigotes infected in peritoneal macrophages of Mesocricetus auratus by drug sensitivity assay; assay type: functional, organism-based
[5] = Therapeutic index, ratio of EC50 for human KB cells to EC50 for intracellular Leishmania donovani MHOM/ET/67/HU3 amastigotes infected in peritoneal macrophages of Mesocricetus auratus; assay type: cell-based; conditions: read-out: TI
Leishmania donovani [6] = experiment: Antileishmanial activity against Leishmania donovani MHOM/ET/67/HU3 promastigotes by drug sensitivity assay; assay type: functional, organism-based
Leishmania donovani [7] = experiment: Antileishmanial activity against Leishmania donovani MHOM/ET/67/HU3 amastigotes infected in ip dosed BALB/c mouse model administered one week after infection for 5 consecutive days measured after 3 days of last dose by Giemsa staining; assay type: functional; conditions: MHOM/ET/67/HU3, ip
Leishmania donovani [8] = experiment: Antileishmanial activity against Leishmania donovani MHOM/ET/67/L82 infected in po dosed BALB/c mouse model; assay type: functional; conditions: MHOM/ET/67/L82, po
[9] = Solubility at phosphate-buffered saline of pH 7.4; assay type: physicochemical; conditions: buffer
Leishmania donovani [10] = experiment: Antileishmanial activity against Leishmania donovani MHOM/ET/67/HU3 amastigotes infected in ip dosed BALB/c mouse model administered as suspension one week after infection for 5 consecutive days measured after 3 days of last dose by Giemsa staining; assay type: functional; conditions: MHOM/ET/67/HU3, ip

| SMILES | EC50 (Leishmania donovani [4]) | EC50 (Leishmania donovani [6]) | Ratio EC50 (Leishmania donovani [2]) | further results |
| --- | --- | --- | --- | --- |
| CCCCCCCCCCCCCCCCOP(=O)([O-])OCC[N+]1(C)CCCCC1 | 300 nM | – | 0.09 | Activity (Leishmania donovani [1]): Dose-dependent effect; ED50 (Leishmania donovani [1]): 25.5 mg/kg; selectivity ratio [3]: 95.7; selectivity ratio [5]: 23.4 |
| CCCCCCCCCCCCCCCCOP(=O)([O-])OCC[N+](C)(C)c1ccccc1.O | 580 nM | – | 0.11 | – |
| CCCCCCCCCCCCCCCCCCOP(=O)([O-])OCC[N+](C)(C)CC | – | 2040 nM | – | – |
| CCCCCCCCCCCCCCCCOP(=O)([O-])OCC[N+]1(C)CCOCC1.O | 2460 nM | – | 0.46 | – |
| CCCCCCCCC(Br)C(Br)CCCCCCCCOP(=O)([O-])OCC[N+](C)(C)C (configuration not stated) | – | 1090 nM | – | – |
| CCCCCCCCCCCCCCCCOCC(COP(=O)([O-])OCC[N+](C)(C)C)OC (configuration not stated) | – | 3580 nM | – | – |
| CCCCCCCCCCCCCCCCCCOP(=O)([O-])OCC[N+](C)(C)C [OCTADECYLPHOSPHONOCHOLINE] | – | 2400 nM | – | – |
| CCCCCCCCCCCCCCCCCCOCC(COP(=O)([O-])OC1CC2CCC(C1)[N+]2(C)C)OC (configuration not stated) | – | 1690 nM | – | – |
| CCCCCCCCCCCCCCCCCC(C)OP(=O)([O-])OCC[N+](C)(C)C (configuration not stated) | – | 3350 nM | – | – |
| CCCCCCCCCCCCCCCCOP(=O)([O-])OCC[N+]12CCC(CC1)CC2.O | 550 nM | – | 0.16 | – |
| CCCCCCCCCCCCCCCCCCOCC(COP(=O)([O-])OCC[N+]1(C)CCCCC1)OC (configuration not stated) | 1680 nM | 1790 nM | 0.32 | – |
| CCCCCCCCCCCCCCCCCCOP(=O)([O-])OCCC1CC[N+](Cc2ccccc2)(Cc2ccccc2)CC1.O | 760 nM | – | 0.23 | – |
| CCCCCCCCCCCCCCCCOP(=O)([O-])OCC[N+](C)(C)C [MILTEFOSINE] | 2040 nM | 5700 nM | – | ED50 (Leishmania donovani [1]): 8.09 mg/kg; ED50 (Leishmania donovani [7]): 7.72 mg/kg; ED50 (Leishmania donovani [8]): 10 mg/kg; selectivity ratio [3]: 5.48; selectivity ratio [5]: 0.83 |
| CCCCCCCCCCCCCCCCOP(=O)([O-])OC1CC[N+](C)(Cc2ccccc2)CC1 (configuration not stated) | 410 nM | – | 0.12 | solubility [9]: Soluble; ED50 (Leishmania donovani [10]): 33 mg/kg; selectivity ratio [3]: > 220; selectivity ratio [5]: 179 |
| CCCCCCCCCCCCCCCCOCCOCCOCCOCCOCCOCCOCCOCCOCCOCCOP(=O)([O-])OC1CC[N+](C)(C)CC1 | 1320 nM | – | 0.4 | – |
| CCCCCCCCCCCCCCCCCCSCC(COC)COP(=O)([O-])OCC[N+]1(C)CCCCC1.O (configuration not stated) | 250 nM | 3610 nM | 0.07 | – |
| CCCCCCCCCCCCCCCCCCOP(=O)([O-])OCCC1CC[N+](C)(Cc2ccccc2)CC1.O.O (configuration not stated) | 820 nM | – | 0.25 | – |
| CCCCCCCCCCCCCCCCCCOCCOCCOP(=O)([O-])OCC[N+]1(C)CCCC1 | – | 3360 nM | – | – |
| CCCCCCCCCCCCCCCCOCCCOP(=O)([O-])OCC[N+](C)(C)C | – | 1550 nM | – | – |

Continued, in another order:

| EC50 (Leishmania donovani [4]) | EC50 (Leishmania donovani [6]) | SMILES | Ratio EC50 (Leishmania donovani [2]) | further results |
| --- | --- | --- | --- | --- |
| 400 nM | – | CCCCCCCCCCCCCCCCCCOP(=O)([O-])OC1CC[N+](CC)(CC)CC1.O.O | 0.12 | ED50 (Leishmania donovani [1]): 35.3 mg/kg; selectivity ratio [3]: 11.7; selectivity ratio [5]: 6.89 |
| 1190 nM | – | CCCCCCCCCCCCCCCCCCOP(=O)([O-])OCC[N+](C)(C)C1CCCCC1.O | 0.22 | – |
| 990 nM | – | CCCCCCCCCCCCCCCCOP(=O)([O-])OC1CC[N+](C)(CCc2ccccc2)CC1.O.O (configuration not stated) | 0.49 | – |
| 940 nM | – | CCCCCCCCCCCCCCCCCCOP(=O)([O-])OCC[N+]1(C)CCOCC1 | 0.18 | – |
| 430 nM | – | CCCCCCCCCCCCCCCCCCOP(=O)([O-])OC1CCC[N+](C)(C)C1 (configuration not stated) | 0.13 | – |
| – | 2710 nM | CCCCCCCCCCCCCCCCCCOP(=O)([O-])OC1CC[N+](C)(CC)CC1 (configuration not stated) | – | – |
| 710 nM | – | CCCCCCCCCCCCCCCCCCOP(=O)([O-])OC1CC2CCC(C1)[N+]2(C)C (configuration not stated) | 0.13 | – |
| – | 1290 nM | CCCCCCCCCCCCCCCCCCCOP(=O)([O-])OCC[N+]1(C)CCCCC1 | – | – |
| 400 nM | – | CCCCCCCCCCCCCCCCCCOP(=O)([O-])OC1CC[N+](C)(Cc2ccccc2)CC1.O (configuration not stated) | 0.12 | – |
| 1220 nM | 2370 nM | CCCCCCCCCCCCCCCCCCOP(=O)([O-])OCC[N+]1(C)CCSCC1.O | 0.23 | – |
| – | 3060 nM | CCCCCCCCCCCCCCCCCCOP(=O)([O-])OC1CC[N+]2(CCCC2)CC1 | – | – |
| 1370 nM | 3060 nM | CCCCCCCCCCCCCCCCCCOP(=O)([O-])OCC[N+]1(C)CCC(O)CC1 (configuration not stated) | 0.41 | – |
| 2640 nM | 1520 nM | CCCCCCCCCCCCCCCCCCOP(=O)([O-])OCC[N+](C)(C)C1CC1.O | 0.5 | – |
| – | 3020 nM | CCCCCCCCCCCCCCCCCCOP(=O)([O-])OC1CC[N+](C)(C)CC1 [PERIFOSINE] | 0.63 | ED50 (Leishmania donovani [8]): 25.2 mg/kg |
